The values that follow are results of earlier work, collected in patent publication US20250067661A1, “SYSTEM FOR BODY FLUID ISOMER ANALYSIS” (KONINKLIJKE PHILIPS N.V., priority 2021, published 2025).

For this data set the following is noted: intravenous solution containing a racemic mixture.

As for `C[C@@H](O)C(=O)O` [D-lactate], the “maximum increase in plasma concentration” value was at most 13 fold.
On to `C[C@H](O)C(=O)O` [L-lactate], for which the “maximum increase in plasma concentration” value is at most 2 fold.
